Data taken from the supplement of paper PMC10307832.

Key:
[1] = compound: CC(C)(C)c1nc(-c2cccc(NS(=O)(=O)c3c(F)cccc3F)c2F)c(-c2ccnc(N)n2)s1 [Dabrafenib] + O=C(CCCCCCC(=O)Nc1ccccc1)NO [Vorinostat] (partner 1 µM); test: relative viability (nuclei count vs DMSO), 5 days (fraction); higher = more cells survive
How it was run: (§1)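 Relative viability is defined as nuclei in treated wells over nuclei in vehicle wells. Duplicate plates were run and medians reported. Lung cancer cell lines in 1536-well plates were dosed by pin tool one day after seeding, with one drug or with a fixed anchor-drug dose plus five library-drug doses (not always all listed) in √10 steps, and nuclei were counted after 5 days.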

[2] = compound: CC(C)(C)c1nc(-c2cccc(NS(=O)(=O)c3c(F)cccc3F)c2F)c(-c2ccnc(N)n2)s1 [Dabrafenib] + NC(=O)Nc1cc(-c2cccc(F)c2)sc1C(=O)N[C@H]1CCCNC1 [AZD7762] (partner 0.2 µM); test: as above
How it was run: as §1

Row | Cell Line | relative viability ([1]; first compound 0.009487 µM) | relative viability ([1]; first compound 0.03 µM) | relative viability ([1]; first compound 0.09487 µM) | relative viability ([1]; first compound 0.3 µM) | relative viability ([2]; first compound 0.009487 µM) | relative viability ([2]; first compound 0.03 µM) | relative viability ([2]; first compound 0.09487 µM) | relative viability ([2]; first compound 0.3 µM) | relative viability ([1]; first compound 0.003 µM) | relative viability ([2]; first compound 0.003 µM)
1 | NCI-H650 | 0.346 | 0.408 | 0.241 | 0.218 | 1.08 | 0.82 | 0.663 | 0.724 | – | –
2 | NCI-H661 | 0.778 | 0.804 | 0.767 | 0.842 | – | – | – | – | 0.889 | –
3 | NCI-H727 | 1.27 | – | 0.995 | 1.19 | 0.459 | – | 0.492 | 0.669 | 0.538 | 0.472
4 | NCI-H838 | 0.752 | 0.713 | 0.711 | 0.759 | 0.885 | 0.91 | 0.889 | 0.89 | 0.693 | 0.993
5 | NCI-H1355 | 0.672 | 0.641 | 0.581 | 0.633 | 0.814 | 0.669 | 0.655 | 0.803 | – | –
6 | NCI-H1395 | 0.699 | 0.719 | 0.662 | 0.667 | 0.385 | 0.402 | 0.424 | 0.412 | – | –
7 | NCI-H1437 | 0.813 | 0.907 | 0.802 | 0.872 | 1.16 | 1.19 | 1.11 | 1.18 | 0.839 | 1.09
8 | NCI-H1648 | 0.429 | – | 0.499 | 0.421 | 0.797 | – | 0.611 | 0.802 | 0.459 | 0.638
9 | NCI-H1650 | 0.528 | 0.711 | 0.608 | 0.659 | – | – | – | – | 0.547 | –
10 | NCI-H1651 | 0.533 | 0.573 | 0.419 | 0.544 | 0.466 | 0.461 | 0.43 | 0.451 | 0.567 | 0.25
11 | NCI-H1666 | 0.937 | 1.19 | 0.972 | 1.15 | 0.879 | 0.742 | 0.778 | 0.937 | 1.05 | 0.592
12 | NCI-H1703 | – | – | – | – | – | – | – | 0.136 | – | –
13 | NCI-H1734 | 0.85 | 0.627 | 0.708 | 0.759 | 0.587 | 0.5 | 0.452 | 0.378 | – | –
14 | NCI-H1755 | 0.726 | 0.558 | 0.771 | 0.728 | 0.446 | 0.353 | 0.435 | 0.471 | 0.849 | 0.331
15 | NCI-H1792 | – | – | – | – | 0.723 | 0.434 | 0.34 | 0.485 | – | –
16 | NCI-H1793 | 1.12 | – | 0.877 | 0.873 | 0.489 | – | 0.493 | 0.434 | – | –
17 | NCI-H1915 | 0.576 | 0.414 | 0.219 | 0.206 | 0.653 | 0.368 | 0.268 | 0.282 | 0.544 | 0.712
18 | NCI-H1944 | 0.529 | 0.508 | 0.659 | 0.483 | 0.537 | 0.397 | 0.457 | 0.555 | 0.445 | 0.219
19 | NCI-H1975 | 0.742 | 0.741 | 0.705 | 0.663 | 0.788 | 0.734 | 0.505 | 0.78 | 0.636 | 0.481
20 | NCI-H1993 | 1.35 | 0.735 | 0.631 | 1.09 | 0.968 | 0.792 | 0.716 | 0.826 | 0.753 | 0.555

Row | Cell Line | relative viability ([1]; first compound 0.009487 µM) | relative viability ([1]; first compound 0.03 µM) | relative viability ([1]; first compound 0.09487 µM) | relative viability ([1]; first compound 0.3 µM) | relative viability ([2]; first compound 0.009487 µM) | relative viability ([2]; first compound 0.03 µM) | relative viability ([2]; first compound 0.09487 µM) | relative viability ([2]; first compound 0.3 µM) | relative viability ([1]; first compound 0.003 µM) | relative viability ([2]; first compound 0.003 µM)
21 | NCI-H2009 | 0.64 | 0.673 | 0.414 | 0.574 | – | – | – | – | 0.651 | –
22 | NCI-H2023 | 0.717 | 0.733 | 0.559 | 0.6 | – | – | – | – | 0.716 | –
23 | NCI-H2085 | 1.01 | 0.801 | 0.79 | 0.748 | 1.11 | 1.01 | 0.874 | 1.01 | 0.669 | 0.724
24 | NCI-H2087 | 0.8 | 0.779 | 0.594 | 0.809 | 1.24 | 1.11 | 0.928 | 1 | – | –
25 | NCI-H2126 | 0.916 | 0.767 | 0.888 | 0.993 | 1.11 | 1.02 | 0.94 | 1.01 | 0.693 | 0.872
26 | NCI-H2170 | 0.798 | 0.703 | 0.647 | 0.732 | 0.841 | 0.616 | 0.64 | 0.745 | 0.777 | 0.282
27 | NCI-H2228 | 0.53 | 0.656 | 0.381 | 0.877 | – | – | – | – | 0.501 | –
28 | NCI-H2342 | 0.702 | 0.664 | 0.696 | 0.721 | 0.486 | 0.417 | 0.481 | 0.55 | 0.551 | 0.364
29 | NCI-H2347 | 0.603 | 0.385 | 0.551 | 0.591 | 0.63 | 0.562 | 0.605 | 0.598 | – | –
30 | NCI-H2405 | 1 | 0.488 | 0.81 | 0.962 | 0.805 | 0.592 | 0.597 | 0.598 | – | –
31 | NCI-H3122 | 0.966 | 0.916 | 0.991 | 1.02 | 1.03 | 1.06 | 0.986 | 1.07 | 0.978 | 0.508
32 | PC-3 [JPC-3] | 0.981 | 0.713 | 0.771 | 1.12 | 1.02 | 0.857 | 1.02 | 1.07 | – | –
33 | PC-14 | 0.829 | 0.737 | 0.757 | 0.73 | 0.375 | 0.363 | 0.297 | 0.414 | – | 0.0746
34 | RERF-LC-KJ | 0.779 | 0.706 | 0.618 | 0.789 | 1.01 | 0.907 | 0.916 | 1.35 | 0.745 | 0.871
35 | SK-LU-1 | 0.716 | 0.692 | 0.605 | 0.651 | – | – | – | – | – | –
36 | SK-MES-1 | 1.05 | 1.14 | 1.04 | 0.854 | – | – | – | – | – | –
37 | SW 900 | 0.455 | – | 0.714 | 0.596 | 0.578 | – | 0.845 | 0.875 | – | –
38 | SW 1573 | 0.719 | 0.672 | 0.552 | 0.673 | – | – | – | – | 0.73 | –
39 | UMC-11 | 0.362 | 0.409 | 0.473 | 0.454 | – | – | – | – | 0.379 | –
